Where a chain is given by its changes, count along the chain named.

The source of these data is article PMC9190012, “Heparin activation of protein Z-dependent protease inhibitor (ZPI) allosterically blocks protein Z activation through an extended heparin-binding site” (The Journal of Biological Chemistry, 2022).

What all share (experiment): Direct heparin binding titrations monitored by intrinsic protein fluorescence quenching
The target of assay [1] is T1, helix H site mutant ZPI (K260A/R263A/R305A/K308A/R310A) (Homo sapiens, UniProt Q9UK55, K281A/K329A/R284A/R326A/R331A).
T1 construct: made in house; host or cells: Escherichia coli
T1 sequence (Q9UK55 22-444 K281A/R284A/R326A/K329A/R331A): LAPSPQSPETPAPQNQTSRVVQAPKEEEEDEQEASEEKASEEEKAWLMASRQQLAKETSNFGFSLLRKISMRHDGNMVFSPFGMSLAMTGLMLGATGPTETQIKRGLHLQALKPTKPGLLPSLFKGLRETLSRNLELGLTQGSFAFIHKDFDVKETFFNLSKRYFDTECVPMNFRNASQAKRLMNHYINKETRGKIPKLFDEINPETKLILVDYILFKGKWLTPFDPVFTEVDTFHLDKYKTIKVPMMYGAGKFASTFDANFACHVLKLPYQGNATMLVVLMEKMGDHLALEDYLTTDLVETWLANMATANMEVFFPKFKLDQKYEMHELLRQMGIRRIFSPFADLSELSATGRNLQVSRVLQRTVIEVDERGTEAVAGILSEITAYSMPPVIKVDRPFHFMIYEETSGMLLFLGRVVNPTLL
Conditions: 200 nM helix H site mutant ZPI. As to the method: (§1) Fluorescence emission spectra of NBD-ZPI (50–100 nM) were measured in the absence or the presence of PZ and heparin in 20 mM Tris buffer (pH 7.4), 0.2 M NaCl, 0.1% PEG 8000, 1 mg/ml bovine serum albumin (BSA), and 2.5 mM CaCl2 with an SLM 8000 spectrofluorometer with excitation at 480 nm over the emission range of 500 to 600 nm. Intrinsic protein fluorescence of WT and mutant ZPIs (200 nM to 1 μM) was measured in the same buffer without BSA, with excitation at 280 nm over the emission range of 300 to 400 nm. Emission was monitored in 5-nm steps with 5 to 10 s of integrations per step. Spectra were obtained in triplicate and averaged. Buffer, buffer plus PZ, or buffer plus heparin background spectra were subtracted, and dilution corrections were made for added PZ or heparin (<10%). Direct equilibrium binding of heparin to ZPI was measured by titrations of unlabeled WT and variant ZPIs (0.2–1 μM) with heparin monitored by the quenching of intrinsic protein fluorescence accompanying heparin binding at excitation and emission wavelengths of 280 and 340 nm, respectively. Titrations were computer fit by the aforementioned quadratic binding equation with [H]o replacing [PZ]o and KD,H replacing KD,PZapp.

For assay [2], the target named is T2, helix C site mutant ZPI (K104A/R105A/K113A/K116A) (Homo sapiens, UniProt Q9UK55, K125A/K134A/K137A/R126A).
T2 construct: made in house; host or cells: Escherichia coli
T2 sequence (Q9UK55 22-444 K125A/R126A/K134A/K137A): T1 sequence (Q9UK55 22-444 K281A/R284A/R326A/K329A/R331A) with K104A, R105A, K113A, K116A, A260K, A263R, A305R, A308K, A310R
Conditions: 1 μM helix C site mutant ZPI; quenching end point fixed at WT. As for the experimental part: as §1

For another assay, the target named is T3, WT ZPI (Homo sapiens, UniProt Q9UK55).
T3 construct: made in house; host or cells: Escherichia coli
T3 sequence (Q9UK55 22-444): T1 sequence (Q9UK55 22-444 K281A/R284A/R326A/K329A/R331A) with A260K, A263R, A305R, A308K, A310R
As to the method: as §1

Turning to `CO[C@H]1O[C@H](COS(=O)(=O)O)[C@@H](O[C@@H]2O[C@@H](C(=O)O)[C@@H](O[C@H]3O[C@H](COS(=O)(=O)O)[C@@H](O[C@@H]4O[C@H](C(=O)O)[C@@H](O[C@H]5O[C@H](COS(=O)(=O)O)[C@@H](O)[C@H](O)[C@H]5NS(=O)(=O)O)[C@H](O)[C@H]4O)[C@H](OS(=O)(=O)O)[C@H]3NS(=O)(=O)O)[C@H](O)[C@H]2OS(=O)(=O)O)[C@H](O)[C@H]1NS(=O)(=O)O` [H5, fondaparinux], the Kd in assay [1] worked out at 142 ± 42 µM; in assay [2] it was 1900 ± 200 µM; on WT ZPI (200 nM WT ZPI, 0.2 M NaCl buffer, pH 7.4, 25 °C) it was 123 ± 23 µM. Moreover, on WT ZPI (fit of titration by quadratic binding equation), the “maximal quenching of protein fluorescence” value was −15 ± 1%. Further, the “quenching of the protein fluorescence emission spectrum” value on WT ZPI (near saturating levels of heparin (400 μM H5 or 4 μM H72)) was 15 to 20%.
